ChEMBL document CHEMBL1201862, “PubChem BioAssay data set” (2004)
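Five concentrations, 48 hours, 96-well plates. Here, GI50 denotes the concentration required for 50% inhibition of growth.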 The source made the active and inactive calls. Rule as the data show it: active = GI50 up to about 1.1 µM and inactive = higher. Non-standard residues stand in square brackets, D forms with d. Residues, ends and D or L forms follow the SMILES beside them. *: point of attachment. NMeF = CN[CH](Cc1ccccc1)C(=O)O; NMeV = CN[CH](C(=O)O)C(C)C; Boc = CC(C)(C)OC(=O)*

Assays:
Assay in all cases: DTP human tumour cell line panel, 48 h
[1] = tested on: EKVX
[2] = tested on: SF-268
[3] = tested on: UO-31
[4] = tested on: CCRF-CEM
[5] = tested on: NCI-H23
[6] = tested on: OVCAR-5
[7] = tested on: SF-539
[8] = tested on: T47D
[9] = tested on: HOP-92
[10] = tested on: IGROV-1
[11] = tested on: LOX IMVI
[12] = tested on: NCI-H226
[13] = tested on: 786-0
[14] = tested on: SR
[15] = tested on: KM12
[16] = tested on: SK-MEL-5
[17] = tested on: NCI/ADR-RES
[18] = tested on: BT-549
[19] = tested on: A549
[20] = tested on: ACHN
[21] = tested on: SW-620
[22] = tested on: RXF 393
[23] = tested on: HOP-62
[24] = tested on: M14
[25] = tested on: A498
[26] = tested on: K562
[27] = tested on: Hs-578T
[28] = tested on: CAKI-1
[29] = tested on: UACC-257
[30] = tested on: OVCAR-8
[31] = tested on: SK-OV-3
[32] = tested on: SK-MEL-28
[33] = tested on: MDA-MB-231
[34] = tested on: Malme-3M
[35] = tested on: COLO 205
[36] = tested on: PC-3
[37] = tested on: MDA-MB-435
[38] = tested on: SNB-75
[39] = tested on: U-251
[40] = tested on: NCI-H460
[41] = tested on: OVCAR-3
[42] = tested on: UACC-62
[43] = tested on: MCF7
[44] = tested on: SK-MEL-2
[45] = tested on: RPMI-8226
[46] = tested on: MOLT-4
[47] = tested on: SF-295
[48] = tested on: NCI-H522
[49] = tested on: TK-10
[50] = tested on: HCT-116
[51] = tested on: DU-145
[52] = tested on: OVCAR-4
[53] = tested on: HL-60
[54] = tested on: SNB-19
[55] = tested on: HCT-15
[56] = tested on: HT-29
[57] = tested on: SN12C
[58] = tested on: MDA-N
[59] = tested on: HCC 2998
[60] = tested on: XF498
[61] = tested on: DMS-273
[62] = tested on: M19-MEL
[63] = tested on: LXFL 529
[64] = tested on: DMS-114
[65] = tested on: KM-20L2

In the case of `CCOC(=O)NN(C(=O)OCC)C(=C(c1ccccc1)N1CCOCC1)N(NC(=O)OCC)C(=O)OCC`, the GI50 [1] is reported as > 100 µM (inactive), the GI50 [2] is reported as > 100 µM (inactive) and the GI50 [3] is reported as 58.5 µM (inactive). The GI50 [4] was > 100 µM (inactive), the GI50 [5] was > 100 µM (inactive) and the GI50 [6] was > 100 µM (inactive). For the same compound, the GI50 [7] was > 100 µM (inactive), the GI50 [8] was > 100 µM (inactive) and the GI50 [9] was > 100 µM (inactive). For the same compound, the GI50 [10] was > 100 µM (inactive), the GI50 [11] was > 100 µM (inactive) and the GI50 [12] was > 100 µM (inactive). For the same compound, the GI50 [13] was > 100 µM (inactive), the GI50 [14] was > 100 µM (inactive) and the GI50 [15] was > 100 µM (inactive). For the same compound, the GI50 [16] was > 100 µM (inactive), the GI50 [17] was > 100 µM (inactive) and the GI50 [18] was > 100 µM (inactive). For the same compound, the GI50 [19] was > 100 µM (inactive), the GI50 [20] was > 100 µM (inactive) and the GI50 [21] was > 100 µM (inactive). For the same compound, the GI50 [22] was > 100 µM (inactive), the GI50 [23] was > 100 µM (inactive) and the GI50 [24] was > 100 µM (inactive). The GI50 [25] was > 100 µM (inactive), the GI50 [26] was > 100 µM (inactive) and the GI50 [27] was > 100 µM (inactive). The GI50 [28] was > 100 µM (inactive), the GI50 [29] was > 100 µM (inactive) and the GI50 [30] was > 100 µM (inactive). For the same compound, the GI50 [31] was > 100 µM (inactive), the GI50 [32] was > 100 µM (inactive) and the GI50 [33] was > 100 µM (inactive). For the same compound, the GI50 [34] was > 100 µM (inactive), the GI50 [35] was > 100 µM (inactive) and the GI50 [36] was > 100 µM (inactive). The GI50 [37] was > 100 µM (inactive), the GI50 [38] was 44 µM (inactive) and the GI50 [39] was > 100 µM (inactive). For the same compound, the GI50 [40] was > 100 µM (inactive), the GI50 [41] was > 100 µM (inactive) and the GI50 [42] was > 100 µM (inactive). For the same compound, the GI50 [43] was > 100 µM (inactive), the GI50 [44] was > 100 µM (inactive) and the GI50 [45] was > 100 µM (inactive). For the same compound, the GI50 [46] was > 100 µM (inactive), the GI50 [47] was > 100 µM (inactive) and the GI50 [48] was > 100 µM (inactive). The GI50 [49] was > 100 µM (inactive), the GI50 [50] was > 100 µM (inactive) and the GI50 [51] was > 100 µM (inactive). For the same compound, the GI50 [52] was > 100 µM (inactive), the GI50 [53] was > 100 µM (inactive) and the GI50 [54] was > 100 µM (inactive). The GI50 [55] was greater than 100 µM, the GI50 [56] was > 100 µM (inactive) and the GI50 [57] was > 100 µM (inactive). For the same compound, the GI50 [58] was > 100 µM (inactive) and the GI50 [59] was > 100 µM (inactive).
`CC(C)C(NC(=O)OC(C)(C)C)C(=O)N(C)C(Cc1ccccc1)C(=O)N(C)C(C(=O)O)C(C)C` (stereo not drawn) (Boc-Val-[NMeF]-[NMeV]-OH; configuration not given here) was tested, and the GI50 [1] was > 100 µM (inactive), the GI50 [2] was 62.4 µM (inactive) and the GI50 [3] was > 100 µM (inactive). The GI50 [4] was > 100 µM (inactive), the GI50 [5] was > 100 µM (inactive) and the GI50 [7] was > 100 µM (inactive). For the same compound, the GI50 [10] was > 100 µM (inactive), the GI50 [11] was > 100 µM (inactive) and the GI50 [12] was > 100 µM (inactive). The GI50 [13] was > 100 µM (inactive), the GI50 [60] was > 100 µM (inactive) and the GI50 [14] was > 100 µM (inactive). For the same compound, the GI50 [15] was > 100 µM (inactive), the GI50 [16] was > 100 µM (inactive) and the GI50 [19] was > 100 µM (inactive). The GI50 [21] was > 100 µM (inactive), the GI50 [23] was > 100 µM (inactive) and the GI50 [24] was > 100 µM (inactive). For the same compound, the GI50 [61] was > 100 µM (inactive), the GI50 [26] was > 100 µM (inactive) and the GI50 [29] was > 100 µM (inactive). The GI50 [30] was > 100 µM (inactive), the GI50 [31] was > 100 µM (inactive) and the GI50 [32] was > 100 µM (inactive). The GI50 [62] was > 100 µM (inactive), the GI50 [34] was > 100 µM (inactive) and the GI50 [35] was > 100 µM (inactive). For the same compound, the GI50 [39] was > 100 µM (inactive), the GI50 [40] was > 100 µM (inactive) and the GI50 [41] was > 100 µM (inactive). The GI50 [42] was > 100 µM (inactive), the GI50 [45] was > 100 µM (inactive) and the GI50 [46] was > 100 µM (inactive). The GI50 [47] was > 100 µM (inactive), the GI50 [48] was 71.1 µM (inactive) and the GI50 [49] was > 100 µM (inactive). For the same compound, the GI50 [50] was > 100 µM (inactive), the GI50 [53] was > 100 µM (inactive) and the GI50 [54] was > 100 µM (inactive). For the same compound, the GI50 [63] was > 100 µM (inactive), the GI50 [64] was > 100 µM (inactive) and the GI50 [55] was greater than 100 µM. For the same compound, the GI50 [56] was > 100 µM (inactive), the GI50 [57] was > 100 µM (inactive) and the GI50 [65] was > 100 µM (inactive). The GI50 [59] was > 100 µM (inactive).
